Laboratory results taken from article PMC4971072, “Chemically Homogenous Compounds with Antagonistic Properties at All α1-Adrenoceptor Subtypes but not β1-Adrenoceptor Attenuate Adrenaline-Induced Arrhythmia in Rats” (Frontiers in Pharmacology, 2016).
Like-named read-outs stand apart in the source and are kept apart here. Marks after values point to notes of the source that are not given here.

What was measured:
α1A-adrenoceptors = target: T1, α1A-adrenoceptors (Rattus norvegicus, UniProt P43140); conditions: rat tail artery, cited from earlier work
T1 construct: the middle part of the ventral caudal artery was removed; from tissue; host or cells: isolated rat tail (ventral caudal) artery rings
T1 sequence (P43140 1-466): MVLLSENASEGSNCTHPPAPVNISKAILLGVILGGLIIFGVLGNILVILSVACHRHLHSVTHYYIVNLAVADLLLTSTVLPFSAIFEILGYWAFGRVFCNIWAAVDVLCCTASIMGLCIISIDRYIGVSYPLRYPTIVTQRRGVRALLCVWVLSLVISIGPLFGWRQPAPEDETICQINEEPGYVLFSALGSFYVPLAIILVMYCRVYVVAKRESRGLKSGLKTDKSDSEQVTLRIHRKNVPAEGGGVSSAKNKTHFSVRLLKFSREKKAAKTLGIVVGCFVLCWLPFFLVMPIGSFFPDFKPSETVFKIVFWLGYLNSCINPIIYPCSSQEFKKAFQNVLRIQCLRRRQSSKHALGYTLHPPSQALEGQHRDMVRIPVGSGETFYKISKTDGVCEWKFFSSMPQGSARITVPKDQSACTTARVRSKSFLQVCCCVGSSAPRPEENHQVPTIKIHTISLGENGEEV

α1B-adrenoceptors = target: T2, α1B-adrenoceptors (Mus musculus, UniProt P97717); conditions: mouse spleen, cited from earlier work
T2 construct: The spleen was removed from male mice; from tissue; host or cells: isolated mouse spleen
T2 sequence (P97717 1-514): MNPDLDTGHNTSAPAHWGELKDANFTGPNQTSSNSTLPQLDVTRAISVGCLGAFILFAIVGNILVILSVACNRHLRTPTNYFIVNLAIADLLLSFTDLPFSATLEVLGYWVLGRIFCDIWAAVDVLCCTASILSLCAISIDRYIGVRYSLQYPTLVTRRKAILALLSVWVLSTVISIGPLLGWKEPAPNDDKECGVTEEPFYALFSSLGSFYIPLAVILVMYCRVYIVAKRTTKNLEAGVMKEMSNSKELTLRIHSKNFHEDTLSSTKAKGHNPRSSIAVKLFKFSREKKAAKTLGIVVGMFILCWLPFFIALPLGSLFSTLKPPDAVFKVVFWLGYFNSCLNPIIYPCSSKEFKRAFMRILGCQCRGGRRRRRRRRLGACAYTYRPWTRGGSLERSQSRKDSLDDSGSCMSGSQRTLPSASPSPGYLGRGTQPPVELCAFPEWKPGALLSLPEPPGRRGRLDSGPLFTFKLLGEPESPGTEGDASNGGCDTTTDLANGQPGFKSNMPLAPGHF

α1D-adrenoreceptors = target: T3, α1D-adrenoreceptors (Rattus norvegicus, UniProt P23944); conditions: rat aorta; ref Eltze (1996); cited from earlier work
T3 sequence (P23944 1-561): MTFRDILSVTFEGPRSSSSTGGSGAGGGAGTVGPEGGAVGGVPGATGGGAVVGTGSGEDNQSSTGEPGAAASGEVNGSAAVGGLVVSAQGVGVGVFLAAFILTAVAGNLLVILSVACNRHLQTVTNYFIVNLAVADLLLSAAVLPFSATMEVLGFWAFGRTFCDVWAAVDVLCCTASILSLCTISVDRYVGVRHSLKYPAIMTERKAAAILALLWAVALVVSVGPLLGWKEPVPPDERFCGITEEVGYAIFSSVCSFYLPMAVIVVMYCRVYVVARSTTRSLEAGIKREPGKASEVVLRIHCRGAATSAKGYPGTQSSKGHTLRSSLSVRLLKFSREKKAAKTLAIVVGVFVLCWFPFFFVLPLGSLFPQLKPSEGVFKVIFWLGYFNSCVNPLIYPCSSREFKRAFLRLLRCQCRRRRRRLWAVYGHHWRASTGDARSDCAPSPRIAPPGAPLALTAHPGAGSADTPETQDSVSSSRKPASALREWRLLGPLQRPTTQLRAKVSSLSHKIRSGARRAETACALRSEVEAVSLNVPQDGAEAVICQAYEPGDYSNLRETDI

[1] = system: adrenaline-induced arrhythmia in rats; assay: Prophylactic antiarrhythmic activity in adrenaline-induced arrhythmia; assay type: in vivo, rat
Experimental: The studied compounds were administered i.p. 45 min before the injection of adrenaline, calcium chloride, or barium chloride. The electrocardiogram (ECG) was recorded during the first 2 min as well as in the 5th, 10th, and 15th min after the arrhythmogen injection. […]

[2] = system: lipid peroxidation in rat brain homogenate; assay: Lipid peroxidation in rat brain homogenate (TBARS), antioxidant effect; assay type: biochemical; conditions: 10^−3 M
Experimental: The rat brain homogenate containing 10 mg tissue/ml was prepared in 0.9% saline. The rates of membrane lipid peroxidation were measured by the formation of thiobarbituric acid reactive substances (TBARS). Rat brain homogenates (1 ml) were incubated at 37°C for 5 min with 10 μl of a tested compound or vehicle. Lipid peroxidation was initiated by the addition of 50 μl of 0.5 mM FeCl2 and 50 μl of 2.0 mM ascorbic acid. After 30 min of incubation, the reaction was stopped by adding 0.1 ml of 0.2% butylated hydroxytoluene (BHT). Thiobarbituric acid reagent was then added and the mixture was heated for 15 min in a boiling water bath.

α1-adrenoceptor [3] = conditions: ref Pönicke et al. (2002); read-out: Adrenergic receptors Ki α1; cited from earlier work
α1A−adrenoceptor subtype = system: α1A−adrenoceptor subtype; parameters: method as in Koshimizu et al. (2004); conditions: ref Koshimizu et al. (2004); cited from earlier work
α1B−adrenoceptor = system: α1B−adrenoceptor; parameters: method as in Koshimizu et al. (2004); conditions: ref Koshimizu et al. (2004); cited from earlier work
α1-adrenoceptor [4] = assay: α1-adrenoceptor radioligand binding assay ([3H]-prazosin, rat cerebral cortex); conditions: read-out: Adrenergic receptors Ki α1
Experimental: The α1- and β1-adrenoceptor radioligand binding assay was performed on rat cerebral cortex. […] The cell pellet was resuspended in the Tris–HCl buffer and centrifuged again. Radioligand binding assays were performed in plates (MultiScreen/Millipore). […] The incubation was terminated by rapid filtration through glass fiber filters (Whatman GF/C) using a vacuum manifold (Millipore). The filters were then washed twice with the assay buffer and placed in scintillation vials with a liquid scintillation cocktail. […] All the assays were made in duplicate and the inhibitory constants (Ki) were estimated.
LO–labeled ligand concentration, KD–dissociation constant of labeled ligand

[5] = adrenaline 20 μg/kg i.v. alone (arrhythmia control)

In the case of `COc1cc2nc(N3CCN(C(=O)c4ccco4)CC3)nc(N)c2cc1OC` [Prazosin, prazosin], the “pA2 ± S.E.M., α1A” value (α1A-adrenoceptors; ref Parés-Hipólito et al. (2006)) is listed as 8.93 ± 0.03^a, the “pA2 ± S.E.M., α1B” value (α1B-adrenoceptors; ref Eltze (1996)) is listed as 9.07 ± 0.09^b and the “pA2 ± S.E.M., α1D” value (α1D-adrenoreceptors) is listed as 8.85 ± 0.09^b.

In the case of `CCOc1ccccc1OCCN[C@H](C)Cc1ccc(OC)c(S(N)(=O)=O)c1` [Tamsulosin], the “pA2 ± S.E.M., α1A” value (α1A-adrenoceptors; ref Jähnichen et al. (2004)) is given as 10.32 ± 0.05^c and the “pA2 ± S.E.M., α1B” value (α1B-adrenoceptors; ref Eltze et al. (1999)) is given as 8.33 ± 0.08^d.

With `CNC[C@H](O)c1ccc(O)c(O)c1` [Adrenaline, adrenaline] the “Bigeminy (%)” value [1, 5] was 33.3%, the “Blocks (%)” value [1, 5] was 50.0% and the “Bradycardia (%)” value [1, 5] was 66.7%.

For `COc1ccccc1OCCNCC(O)COc1cccc2[nH]c3ccccc3c12` (stereo not shown) [Carvedilol, carvedilol, reference compound], the ED50 ([1]; Rattus norvegicus, read-out: ED50 (confidence limits)) was 0.36 mg/kg, the “inhibition of lipid peroxidation (in words)” value [2] was “inhibited lipid peroxidation” and the “% reduction of absorbance (% antioxidant activity)” value ([2]; TBARs at 532 nm) was 89.58%. For the same compound, the Absorbance ([2]; TBARs at 532 nm) was 0.094 ± 0.002, the Ki (α1-adrenoceptor [3]) was […] and the “pA2 value for α1A−adrenoceptor subtype” value (α1A−adrenoceptor subtype) was 9.0. For the same compound, the “pA2 value for α1B−adrenoceptor” value (α1B−adrenoceptor) was 10.0.

For `Cc1ccc(N(CC2=NCCN2)c2cccc(O)c2)cc1` [Phentolamine, phentolamine, reference compound], the Ki (α1-adrenoceptor [4]) was 18.3 nM.
